Test results as given in patent US9426991B2, “Synergistic weed control from applications of aminocyclopyrachlor and picloram” (Dow AgroSciences LLC, priority 2012, dated 2016).

Tested on: broomweed (Sida acuta, SIDAC)
Assay: Field trial, post-emergence foliar application, weed control rating 0-100%
Type: in vivo
Settings: for Aminocyclopyrachlor Mean % weed control: 150 g ae/ha alone; for Picloram-Potassium Mean % weed control: 180 g ae/ha alone
Excerpt: The (a) aminocyclopyrachloror an agriculturally acceptable salt or ester thereof is mixed with or applied in combination with (b) picloram or an agriculturally acceptable salt or ester thereof in an amount sufficient to induce a synergistic herbicidal effect. […] As described in the Herbicide Handbook of the Weed Science Society of America, Ninth Edition, 2007, p. 429, “‘synergism’ [is] an interaction of two or more factors such that the effect when combined is greater than the predicted effect based on the response to each factor applied separately.” Synergistic in the herbicide context can mean that the use of (a) and (b) as defined above results in an increased weed control effect compared to the weed control effects that are possible with the use of (a) or (b) alone. In some embodiments, the damage or injury to the undesired vegetation caused by the compositions and methods disclosed herein is evaluated using a scale from 0% to 100%, when compared with the untreated control vegetation, wherein 0% indicates no damage to the undesired vegetation and 100% indicates complete destruction of the undesired vegetation. […] 22 (1967)
Field trials were conducted with applications made to established grassland with naturally occurring weed populations. The target plants were treated with postemergence foliar applications when they were at the beginning of the flowering stage and 30 centimeters (11.8 inches) tall. All treatments were applied using a randomized complete block trial design, with four replications per treatment.
Treatments consisted of aminocyclopyrachlor in acid form and picloram-potassium, each in water and applied alone or in combination. Spray solutions were prepared using an appropriate amount of dilution to form a 2.0-liter (L) aqueous spray solution with active ingredients in single and two-way combinations. Formulated compounds were applied to the plant material with a backpack sprayer equipped with 8003 nozzles calibrated to deliver 400 liters per hectare (L/ha) at a spray height of 18-20 in (45-51 cm) above average plant canopy.
The treated plant was broomweed (Sida acuta, SIDAC). The treated plots and control plots were rated blind at various intervals after application. Ratings were based on a scale of 0-100%, as discussed above, wherein 0% indicates no damage to the undesired vegetation and 100% indicates complete destruction of the undesired vegetation
Colby's equation was used to determine the herbicidal effects expected from the mixtures, as described above. The results were measured at 59 days, 75 days, and 88 days after the first application of the compositions. […] The herbicide tank mix combinations tested, application rates and ratios employed, plant species tested, and results are given below.

| SMILES | Aminocyclopyrachlor Mean % weed control (59 days after application) | Aminocyclopyrachlor Mean % weed control (75 days after application) | Aminocyclopyrachlor Mean % weed control (88 days after application) | Picloram-Potassium Mean % weed control (59 days after application) | Picloram-Potassium Mean % weed control (75 days after application) | Picloram-Potassium Mean % weed control (88 days after application) |
| --- | --- | --- | --- | --- | --- | --- |
| Nc1nc(C2CC2)nc(C(=O)O)c1Cl [Aminocyclopyrachlor, 6-amino-5-chloro-2-cyclopropylpyrimidine-4-carboxylic acid] | 42.5% | 36.3% | 41.3% | – | – | – |
| Nc1c(Cl)c(Cl)nc(C(=O)O)c1Cl [Picloram-Potassium, 4-amino-3,5,6-trichloro-2-pyridinecarboxylic acid] | – | – | – | 6.3% | 3.8% | 5.5% |
